This note sets out measurements from PubChem BioAssay (NCI).

Several values for one entry are separate records, joined by “and”; a condition that tells them apart may be missing. Equal entries are not always repeated.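 1) Cells in 96-well plates. 2) Compound, 48 h, 5 concentrations. 3) Linear interpolation between surrounding doses. 4) Unreached endpoint = highest concentration. GI50: concentration for 50% inhibition of growth. At the TGI there is no net growth.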

Holding throughout (assay): NCI tumour cell line growth inhibition, 48 h
Test [1] deals with MOLT-4 leukemia.
For test [2], the system named is OVCAR-5 ovarian.
Test [3] relates to MALME-3M melanoma.
Test [4] relates to HCT-116 colon.
Test [5] relates to CCRF-CEM leukemia.
For test [6], the system named is NCI-H522 lung.
Test [7] deals with OVCAR-4 ovarian.
Test [8] relates to HL-60(TB) leukemia.
Test [9] concerns A549 NSCLC.
In test [10] the test system is COLO 205 colon.

As to `CNc1ccc2c(c1)[C@@]1(C)c3ccccc3[C@@H](C2)N1C`, the TGI came out at 47.6 µM in test [1]; 86.2 µM in test [2]; 82.1 µM in [3]; 33.4 µM in test [4]; 52.7 µM in test [5]; 37.7 µM in [6]. Moreover, the TGI was above 100 µM in [7], 38.5 µM in test [8] and above 100 µM in [9].
For `Nc1cccc(/C=C/C(=O)N2CCN(CCOC(c3ccccc3)c3ccccc3)CC2)c1`, the TGI in test [1] turned out to be 21.2 µM; in [2] it was 34.6 µM; in test [3], 31.2 µM; in [4] it was 28.9 µM; in test [5], 26.4 µM; in test [6], 28.7 µM. For the same compound, the TGI in test [7] was 26.1 µM; in test [8] it was 32 µM; in test [9], 34.3 µM; in test [10], 33.1 µM.
`CC1=CC(=O)c2ccccc2C1=O`: the TGI in test [1] amounted to 5.15 µM; in [2], 26.7 µM; in test [3], 10.9 µM; in [4], 5.33 µM; in test [5] it was 5.76 µM; in test [6], 11.7 µM. The TGI in test [7] was determined as 9.54 µM; in test [8], 5.94 µM; in [9], 40.2 µM; in test [10], 31.8 µM.
With `CCCCCCCCC/C=C/C=C/C(=O)NCC(=O)NC1C(O)C(O)C(Nc2ncnc3nc[nH]c23)OC1C(O)CO` (stereo unspecified), the GI50 is 0.372 µM in test [1]; 0.00137 µM in [2]; 0.00446 µM in test [3]; 0.00251 µM in test [4]; 0.00453 µM in test [6]; 0.00022 µM in test [7]. The GI50 is 0.00608 µM in test [9] and 0.0002 µM in test [10]. Further, the TGI in [1] was above 100 µM; in test [2] it was 0.0182 µM and 0.0671 µM; in test [3], 0.381 µM; in [4], above 100 µM; in [6], 0.0758 µM and 0.277 µM; in [7] it was 0.0515 µM. For the same compound, the TGI in test [10] is 0.00389 µM and 0.0337 µM.
Take `C[C@H](CCC(=O)O)[C@H]1CC[C@@]2(C)[C@@H]3C(=O)C[C@H]4C(C)(C)[C@@H](O)CC[C@]4(C)[C@H]3C(=O)C[C@]12C`: the TGI in test [1], in test [2], in test [3], in test [4], in test [5] and in [6] was above 100 µM throughout. Further, the TGI in [7], in [8], in test [9] and in [10] was above 100 µM in each case.
For the compound `Cc1c(N2C(=O)CS(=O)(=O)C2c2cccc(Oc3ccccc3)c2)c(=O)n(-c2ccccc2)n1C` (stereo unspecified), the TGI was above 100 µM in [1]; above 100 µM in test [2]; 60 µM in [3]; above 100 µM in test [4]; above 100 µM in test [5]; above 100 µM in [6]. In addition, the TGI in [7] was 66.3 µM; in test [8] it was 53.4 µM; in test [9] it was above 100 µM; in test [10], 95.8 µM.
For `CC1=NN(c2cccc(Cl)c2)C2(SCC(=O)N2c2nc3ccccc3s2)/C1=C\c1cccs1` (stereo unspecified), the TGI came out at 30.4 µM in test [1]; 56.7 µM in [2]; 52.1 µM in test [4]; 61.8 µM in test [6]; 66 µM in test [7]; 56 µM in test [8]. Further, the TGI in [9] came out at 92.8 µM.
`COc1nc(C#CC2(O)CCCCC2)nc(OC)n1`: the TGI is above 100 µM in [1]; 25.4 µM in test [2]; 15.3 µM in [3]; above 100 µM in [4]; 48.6 µM in [5]; 21.9 µM in [6]. For the same compound, the TGI in test [7] stood at 4.44 µM; in [8], 16.3 µM; in test [9], 28.1 µM; in test [10], 45.5 µM.
Regarding `C(=N\NC1=NCCN1)/c1ccc(-c2cn3cc(/C=N/NC4=NCCN4)ccc3n2)cc1`, the TGI in test [1] was above 37.4 µM; in test [2], above 100 µM; in [3], above 100 µM; in [4] it was above 62.4 µM; in test [5], 25.1 µM; in [6], above 100 µM. Also, the TGI in test [7] was above 100 µM; in [8], 19.7 µM; in test [9], 38.1 µM; in [10], above 100 µM.
As for `Nc1ccccc1S(=O)(=O)c1ccccc1`, the TGI in test [1], in test [2], in [3], in test [4], in test [5] and in [7] was above 100 µM throughout. The TGI in test [8], in test [9] and in [10] was above 100 µM in each case.
For `Nc1nc(SCCc2ccccc2)nc2nc3c(c(-c4ccccc4)c12)CCCC3`, the TGI in test [1], in [3], in [5], in test [7], in test [8] and in test [9] was above 100 µM in each case. Also, the TGI in test [10] is above 100 µM.
Take `COc1cc2c(ccc3c4cc(OC)c(OC)cc4c[n+](C)c23)cc1O`: the TGI in [1] was 19.2 µM; in test [2], above 34.5 µM; in [3], 66.4 µM; in test [4], above 60.3 µM; in test [5], 34.6 µM; in test [6], 1.86 µM. Further, the TGI in test [7] was above 65.8 µM; in test [8] it was above 75 µM; in test [9], above 75 µM; in test [10] it was above 75 µM.
With `CCCNC(=O)CCC(C)C1CCC2C3C(C[C@H](OC(C)=O)[C@]12C)[C@@]1(C)CCC2(C[C@H]1C[C@H]3OC(C)=O)OOC1(CC[C@]3(C)C4C[C@H](OC(C)=O)[C@]5(C)C(C(C)CCC(=O)NCCC)CCC5C4[C@H](OC(C)=O)C[C@@H]3C1)OO2` (stereo partly specified), the TGI in [1], in [2], in [3], in [4], in [5] and in [6] was above 100 µM throughout. Further, the TGI in test [7], in test [8], in [9] and in [10] was above 100 µM each time.
Take `Cc1ccccc1C(=O)N/N=C/c1ccc(Sc2nccn2C)c([N+](=O)[O-])c1`: the TGI in test [1], in test [2], in test [3], in test [4], in [5] and in [6] was above 100 µM each time. Besides, the TGI in test [7], in test [8], in [9] and in test [10] was above 100 µM in each case.
For the compound `CNC(=O)OCc1c(CO)nc(SC)n1C`, the TGI in test [1], in [2], in test [3], in test [4], in [5] and in test [6] was above 100 µM in each case. Also, the TGI in test [7], in test [8], in [9] and in test [10] was above 100 µM in each case.
Take `O=C(O)C1C2CCC(O2)C1C(=O)Nc1cccc2cccnc12` (stereo unspecified): the TGI in [2], in test [3], in [4], in [6], in test [7] and in test [9] was above 100 µM throughout.
Consider `O=c1[nH]nc(NNc2ccccc2)c2nnn(C3CCCCC3)c12`, for which the TGI in test [1], in [2], in test [3], in [4], in test [5] and in test [7] was above 100 µM in each case. Also, the TGI in test [8], in test [9] and in [10] was above 100 µM each time.
Turning to `CC(C)(C)c1cc(C2=NNC(c3ccccc3)C2)cc(C(C)(C)C)c1O` (stereo unspecified), the TGI is above 100 µM in test [1]; 40.9 µM in [2]; 34.7 µM in test [3]; 28.3 µM in test [4]; 28.4 µM in test [6]; 33.2 µM in [7]. The TGI in test [9] is 34.5 µM; in [10], 31.7 µM.
Take `Cc1nn(-c2ccccc2)c(C)c1/C=N/N=C1\SCC(=O)N1c1ccccc1`: the TGI was above 100 µM in test [1]; above 100 µM in test [2]; 57.9 µM in test [3]; 36.5 µM in test [4]; above 100 µM in test [5]; 41.7 µM in test [7]. The values for the TGI in test [8], in [9] and in [10] were 82.2 µM, 99.6 µM and 39.9 µM, respectively.
Consider `CCOC(=O)C1=NN(c2ccc(C)cc2)C2=CC(C)=NN(C)C(=S)N21`, for which the TGI in test [1] is above 100 µM; in test [2], above 100 µM; in [4], above 100 µM; in test [5] it was above 100 µM; in test [6], 36.5 µM; in test [7] it was above 100 µM. The TGI in test [8], in test [9] and in [10] was above 100 µM in each case.
Turning to `Fc1ccc(C(OCCN2CCC3CCC(C2)N3C/C=C/c2ccco2)c2ccc(F)cc2)cc1` (stereo unspecified), the TGI came to 20.4 µM in test [1]; 21.7 µM in test [3]; 18.5 µM in test [4]; 0.419 µM in [5]; 20.5 µM in [6]; 25.2 µM in test [7]. Also, the figures for the TGI in test [9] and in test [10] were 29.5 µM and 13.3 µM, respectively.
Take `O=c1cccccc1[O-].O=c1cccccc1[O-].[O]=[U+2]=[O]`: the TGI in [1] was 82 µM; in [4] it was 98.4 µM; in [7] it was 57 µM; in test [9], above 100 µM; in test [10], 60.8 µM.
Turning to `O=C(C[n+]1ccc2ccccc2c1)c1ccc2ccc3ccccc3c2c1`, the TGI in [1] came out at 2.69 µM; in test [2] it was 19.8 µM; in test [3] it was 22.2 µM; in test [4], 13.6 µM; in test [5], 4.78 µM; in test [6], 21.8 µM. Besides, the TGI in test [7] amounted to 19.7 µM; in [9], 16.6 µM; in test [10], 3.87 µM.
Regarding `CCn1c(-c2ccc(N=NNc3ccc(-c4n[nH]c(=S)n4CC)cc3)cc2)n[nH]c1=S`, the TGI in test [1] was 6.28 µM; in test [3], 7.75 µM; in test [4] it was above 100 µM; in test [5], 61.6 µM; in test [6], 5.71 µM; in [7] it was 5.41 µM. Further, the TGI in [9] was above 100 µM.
`COc1ccc(C(=O)/C=C/c2cccc([N+](=O)[O-])c2)c(OC)c1`: the GI50 was 1.17 µM in [1]; 1.56 µM in test [2]; 3.56 µM in test [3]; 0.767 µM in [4]; 1.39 µM in [5]; 1.6 µM in test [6]. Besides, the GI50 in [7] was 2.11 µM; in test [9], 2.56 µM; in test [10], 6.85 µM. The TGI in test [1] is 3.88 µM; in test [2] it was above 50 µM; in [3], above 50 µM; in [4] it was 1.68 µM; in test [5] it was 4.79 µM; in test [6] it was above 50 µM. Moreover, the TGI in [7], in [9] and in test [10] was above 50 µM each time.
As for `NCCCCc1cc(O)c2c(c1O)C(=O)c1ccccc1C2=O`, the TGI in [1] is 10.1 µM; in [2], 28.5 µM; in [3] it was 30 µM; in [4], 18.1 µM; in test [5], 14.4 µM; in test [6] it was 23.7 µM. Besides, the TGI was determined as 35 µM in [7], 16.9 µM in test [9] and 10.4 µM in test [10].
Take `COc1cc2c(cc1O)CC[C@@H]1[C@@H]2CC[C@]2(C)[C@@H](OCCN(C)C)CC[C@@H]12`: the GI50 in [3] was 0.155 µM; in test [6] it was 0.341 µM; in [7] it was 0.306 µM; in test [8], 0.1 µM; in [9], 0.247 µM; in test [10], 0.521 µM. Besides, the TGI in test [3] was determined as 0.753 µM; in test [6] it was 1.3 µM; in [7], 5.84 µM; in test [8], 0.232 µM; in test [9], 1.19 µM; in test [10], 1.17 µM.
